Assay results reported in the NIST ThermoML archive (doi:10.1021/je060271a).
± gives the expanded uncertainty stated by the source.

Settings: 303.14 K, Liquid, Vibrating tube method

Measured: mass density

CCCCCCC(=O)OCC(COC(=O)CCCCCC)(COC(=O)CCCCCC)COC(=O)CCCCCC [pentaerythritol tetraheptanoate]
974.9 ± 1.2 kg/m3: 6598.1 kPa | 6664.4 kPa | 6762.4 kPa
973.3 ± 1.2 kg/m3: 3951.5 kPa | 3980.6 kPa | 4074.3 kPa | 4200.4 kPa | 4233.1 kPa | 4239.8 kPa | 4271.5 kPa
975.3 ± 1.2 kg/m3: 7253.9 kPa | 7291.4 kPa | 7414.5 kPa | 7451.6 kPa | 7522.2 kPa
975.6 ± 1.2 kg/m3: 7637.3 kPa | 7698.9 kPa | 7793.5 kPa | 7823.2 kPa | 7925.9 kPa | 7946.9 kPa | 7994 kPa
975.4 ± 1.2 kg/m3: 7375.1 kPa | 7469.5 kPa | 7494.9 kPa | 7549.5 kPa | 7582.3 kPa
973.2 ± 1.2 kg/m3: 3832.6 kPa | 3922.9 kPa | 4009.8 kPa | 4044.8 kPa
974.8 ± 1.2 kg/m3: 6416.1 kPa | 6447.8 kPa | 6539.5 kPa | 6568.7 kPa | 6633.7 kPa | 6695.2 kPa | 6725.8 kPa
974.1 ± 1.2 kg/m3: 5116.9 kPa | 5185.5 kPa | 5229.7 kPa | 5256.1 kPa | 5328.1 kPa | 5350.7 kPa | 5374.3 kPa | 5425.6 kPa | 5475.8 kPa
973.4 ± 1.2 kg/m3: 4103.9 kPa | 4139.9 kPa | 4170.1 kPa | 4241.6 kPa | 4243.3 kPa | 4245.2 kPa | 4246.6 kPa | 4247.1 kPa | 4247.3 kPa | 4249.4 kPa | 4296.1 kPa | 4342.7 kPa | 4361.4 kPa | 4403.8 kPa | 4413.6 kPa
972.6 ± 1.2 kg/m3: 3058.7 kPa | 3122.8 kPa | 3168.8 kPa
972.7 ± 1.2 kg/m3: 3038.7 kPa | 3082.4 kPa | 3102.9 kPa | 3144 kPa | 3190.1 kPa | 3258.9 kPa | 3307.8 kPa
975.5 ± 1.2 kg/m3: 7609.7 kPa | 7671.1 kPa | 7728.1 kPa | 7757.4 kPa
974.7 ± 1.2 kg/m3: 6342.4 kPa | 6375.9 kPa | 6476.3 kPa | 6510.3 kPa
972.9 ± 1.2 kg/m3: 3352.7 kPa | 3380 kPa | 3403.4 kPa | 3450.4 kPa | 3479.2 kPa | 3502.9 kPa | 3527.3 kPa | 3607.2 kPa
973.6 ± 1.2 kg/m3: 4322.4 kPa | 4393.9 kPa | 4467.5 kPa | 4476.8 kPa | 4487.4 kPa | 4519.6 kPa | 4541.2 kPa | 4563.6 kPa | 4573.1 kPa | 4582.4 kPa | 4605.6 kPa | 4653.8 kPa | 4783.4 kPa | 4901.8 kPa
974.2 ± 1.2 kg/m3: 5402.1 kPa | 5504.5 kPa | 5528.9 kPa | 5690.9 kPa
974 ± 1.2 kg/m3: 4984.3 kPa | 5050.1 kPa | 5138.3 kPa | 5164.1 kPa | 5207.3 kPa | 5277.9 kPa | 5304.9 kPa
975.1 ± 1.2 kg/m3: 7001.6 kPa | 7104.5 kPa
974.3 ± 1.2 kg/m3: 5450.7 kPa | 5554 kPa | 5583.9 kPa | 5609.1 kPa | 5634.4 kPa | 5665 kPa | 5717.2 kPa | 5776.5 kPa | 5804.6 kPa | 5951.6 kPa
976 ± 1.2 kg/m3: 8255.4 kPa
973.9 ± 1.2 kg/m3: 4964.4 kPa | 5029 kPa | 5075 kPa | 5095.7 kPa
975.7 ± 1.2 kg/m3: 7858.2 kPa | 7882.7 kPa | 7904.3 kPa | 7972.8 kPa | 8042.7 kPa
972.8 ± 1.2 kg/m3: 3211.6 kPa | 3237.6 kPa | 3281.4 kPa | 3330.1 kPa
975.8 ± 1.2 kg/m3: 8016.3 kPa | 8064.3 kPa | 8087 kPa | 8113.3 kPa | 8135.7 kPa | 8158.3 kPa | 8181.6 kPa | 8209 kPa | 8305.8 kPa
975 ± 1.2 kg/m3: 6793.3 kPa | 6825.6 kPa | 6857.2 kPa | 6895.7 kPa | 6928 kPa | 6961.5 kPa
973.8 ± 1.2 kg/m3: 4724.4 kPa | 4801.9 kPa | 4820.6 kPa | 4882.7 kPa | 4925 kPa | 4944 kPa | 5008.5 kPa
974.6 ± 1.2 kg/m3: 6015.7 kPa | 6174.1 kPa | 6238.7 kPa | 6270.8 kPa | 6309.5 kPa
974.4 ± 1.2 kg/m3: 5749 kPa | 5832 kPa | 5860 kPa | 5888.5 kPa | 6075.7 kPa
973.1 ± 1.2 kg/m3: 3581.9 kPa | 3689.2 kPa | 3719.9 kPa | 3772.9 kPa | 3800.2 kPa | 3860.2 kPa | 3888.8 kPa
973.5 ± 1.2 kg/m3: 4244.7 kPa | 4245.9 kPa | 4246.8 kPa | 4247.5 kPa | 4257.2 kPa | 4283.5 kPa | 4311.4 kPa | 4372.3 kPa | 4382.1 kPa | 4425.4 kPa | 4435.5 kPa | 4445.2 kPa | 4455.2 kPa | 4499.3 kPa | 4509.6 kPa | 4529.8 kPa | 4551.3 kPa | 4676.1 kPa
974.5 ± 1.2 kg/m3: 5922.7 kPa | 5980.6 kPa | 6045.3 kPa | 6106.1 kPa | 6142.6 kPa | 6207 kPa
973.7 ± 1.2 kg/m3: 4592.3 kPa | 4631.8 kPa | 4703.4 kPa | 4743.1 kPa | 4764.9 kPa | 4843.5 kPa | 4862.8 kPa
975.2 ± 1.2 kg/m3: 7035.6 kPa | 7070.4 kPa | 7139.2 kPa | 7181.2 kPa | 7216.8 kPa | 7336.6 kPa
975.9 ± 1.2 kg/m3: 8232.1 kPa | 8283 kPa | 8328.7 kPa
973 ± 1.2 kg/m3: 3426.8 kPa | 3557 kPa | 3632.9 kPa | 3663.7 kPa | 3746.2 kPa
